Source: patent US7183252B2, “Indole peptidomimetics as thrombin receptor antagonists” (Ortho-McNeil Pharmaceutical, Inc., priority 1999, dated 2007)
Where two headings read alike, the source gives them in different places.

Columns and labels:
gel-filtered platelets = assay: In vitro inhibition of thrombin-induced gel-filtered platelet aggregation; format: cell-based; details: human gel-filtered platelets, agonist thrombin 50 μL of 1 unit/mL, read-out: Thrmb IC50 (Thrombin-induced aggregation of gel-filtered platelets)
Protocol: In Vitro Inhibition of Thrombin-Induced Gel-Filtered Platelet Aggregation Assay
The percentage of platelet aggregation is calculated as an increase in light transmission of compound-treated platelet concentrate vs. control-treated platelet concentrate. Human blood is obtained from drug free, normal donors in tubes containing 0.13M sodium citrate. Platelet rich plasma (PRP) is collected by centrifugation of whole blood at 200×g for 10 min at 25° C. The PRP (5 mL) is gel filtered through Sepharose 2B (bed volume 50 mL), and the platelet count is adjusted to 2×10^7 platelets per sample. The following constituents are added to a siliconized cuvette: concentrated platelet filtrate and Tyrode's buffer (0.14M NaCl, 0.0027M KCl, 0.012M NaHCO3, 0.76 mM Na2HPO4, 0.0055M glucose, 2 mg/mL BSA and 5.0 mM HEPES @ pH 7.4) in an amount equal to 350 μL 50 μL of 20 mM calcium and 50 μL of the test compound. Aggregation is monitored in a BIODATA aggregometer for the 3 min following the addition of agonist (thrombin 50 μL of 1 unit/mL).
(§1) Table 7 contains IC50 values (μM) of the compounds in a thrombin receptor binding assay, and IC50 values (μM) against platelet aggregation stimulated by thrombin.

[1] = biological target: T1, thrombin receptor (PAR-1) (Homo sapiens, UniProt P25116); assay: In vitro thrombin receptor binding assay (CHRF membranes); details: tritiated 721-40 radioligand, read-out: Bndg IC50 (Thrombin receptor binding)
T1 construct: CHRF membranes (Jones, Biochim. Biophys. Acta 1992, 1136, 272) are thawed from −70° C; endogenous in cells; host or cells: CHRF cell membranes
T1 sequence (P25116 22-425): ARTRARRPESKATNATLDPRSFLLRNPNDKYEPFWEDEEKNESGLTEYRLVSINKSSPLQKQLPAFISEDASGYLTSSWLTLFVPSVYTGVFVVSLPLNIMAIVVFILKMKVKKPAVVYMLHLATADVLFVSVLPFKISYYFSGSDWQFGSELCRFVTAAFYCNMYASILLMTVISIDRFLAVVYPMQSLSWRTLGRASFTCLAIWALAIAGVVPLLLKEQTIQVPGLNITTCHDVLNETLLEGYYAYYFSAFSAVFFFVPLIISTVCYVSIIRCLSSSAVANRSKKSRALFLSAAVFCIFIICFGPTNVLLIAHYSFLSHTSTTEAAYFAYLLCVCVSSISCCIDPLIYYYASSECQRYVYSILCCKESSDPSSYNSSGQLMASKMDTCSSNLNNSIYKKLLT
Protocol: In Vitro Thrombin Receptor Binding Assay
CHRF membranes (Jones, Biochim. Biophys. Acta 1992, 1136, 272) are thawed from −70° C., centrifuged at maximum speed for 5 min, washed twice with binding buffer (50 mM HEPES containing 5 mM MgCl2 and 0.1% BSA), and re-suspended in binding buffer (25 μg/[…]). 100 μL of membranes are added to the 24-Wallac plates and delivered to the Tomtech apparatus. In a typical experiment, 6 μL of samples (from a 125 μg/mL intermediary plate, 20% DMSO) and 44 μL buffer are delivered to the plates (final conc. of compounds is 3.7 μg/mL, 0.6% DMSO). Similarly, 6 μL 20% DMSO and 44 μL buffer are delivered to both column 1 (NSB) and column 12 (TB). 10 μL Ser-pFPhe-Har-Leu-Har-Lys-Tyr-NH2 (721–40; 500 μM in deionized water) is added to column 1. 50 μL tritiated 721–40 (specific activity 46 Ci/mmol) is added to all the wells. The plates are mixed well for 20 seconds, incubated for 30 min,and then harvested with 10 mM HEPES/138 mM NaCl using the Skatron harvester. The filters (GF/C Brandel FPXLR 296) are presoaked 3 h in 0.5% polyethylenimine in HEPES/0.1M N-acetylglucosamine) are set in saran wrap and dried for 3 min in the microwave, and placed in sample bags (Wallac 1450-432). 4.5 mL scintillation fluid (Wallac, Betaplate Scint 1205-440) is added. The bags are sealed, placed in filter cassettes (Wallac 1450-104), and analyzed on the microbeta counter.
as §1

SMILES	IC50 (gel-filtered platelets; Platelet) [nM]	IC50 [1] [nM]	IC50 (gel-filtered platelets) [nM]
COc1ccc(CNC(=O)[C@H](CCCNC(=N)N)NC(=O)[C@H](Cc2ccc(F)c(F)c2)NC(=O)Nc2ccc3c(CN4CCCC4)cn(Cc4c(Cl)cccc4Cl)c3c2)cc1 [Compound 61]	1400	300	
N=C(N)NCCC[C@H](NC(=O)[C@H](Cc1ccc(F)c(F)c1)NC(=O)Nc1ccc2c(CN3CCCC3)cn(Cc3c(Cl)cccc3Cl)c2c1)C(=O)NCc1ccncc1 [Compound 62]	1260	30	
N=C(N)NCCC[C@H](NC(=O)[C@H](Cc1ccc(Br)cc1)NC(=O)Nc1ccc2c(CN3CCCCC3)cn(Cc3c(Cl)cccc3Cl)c2c1)C(=O)NCc1ccccc1 [Compound 63]	700	130	
Cc1ccccc1Cn1cc(CN2CCCC2)c2ccc(NC(=O)N[C@@H](Cc3ccc(F)c(F)c3)C(=O)N[C@@H](CCCNC(=N)N)C(=O)NCCc3ccccc3Cl)cc21 [Compound 64]	2200	230	
COc1ccccc1CCNC(=O)[C@H](CCCNC(=N)N)NC(=O)[C@H](Cc1ccc(F)c(F)c1)NC(=O)Nc1ccc2c(CN3CCCC3)cn(Cc3ccccc3C)c2c1 [Compound 65]	1000	220	
NCCC[C@H](NC(=O)[C@H](Cc1ccc(F)c(F)c1)NC(=O)Nc1ccc2c(CN3CCCC3)cn(Cc3c(Cl)cccc3Cl)c2c1)C(=O)NCc1ccccc1 [Compound 66]	240	1100	
CC(C)NCCCC[C@H](NC(=O)[C@H](Cc1ccc(F)c(F)c1)NC(=O)Nc1ccc2c(CN3CCCCC3)cn(Cc3c(Cl)cccc3Cl)c2c1)C(=O)NCc1ccccc1 [Compound 67]	420	450	
O=C(Nc1ccc2c(CN3CCCC3)cn(Cc3c(Cl)cccc3Cl)c2c1)N[C@@H](Cc1ccc(F)c(F)c1)C(=O)N[C@@H](CCCCNC(=O)c1cccnc1)C(=O)NCc1ccccc1 [Compound 68]	4700	6500	
N=C(N)NCCC[C@@H](NC(=O)[C@H](Cc1ccc(F)c(F)c1)NC(=O)Nc1ccc2c(CN3CCCC3)cn(Cc3c(Cl)cccc3Cl)c2c1)C(=O)NCc1ccccc1 [Compound 69]		620	310
NCCCC[C@H](NC(=O)[C@H](Cc1ccc(F)c(F)c1)NC(=O)Nc1ccc2c(CN3CCCC3)cn(Cc3c(Cl)cccc3Cl)c2c1)C(=O)NCc1ccccc1 [Compound 70]	310	320	
CC(=O)NCCCC[C@H](NC(=O)[C@H](Cc1ccc(F)c(F)c1)NC(=O)Nc1ccc2c(CN3CCCC3)cn(Cc3c(Cl)cccc3Cl)c2c1)C(=O)NCc1ccccc1 [Compound 71]	550	3000	
O=C(Nc1ccc2c(CN3CCCC3)cn(Cc3c(Cl)cccc3Cl)c2c1)N[C@@H](Cc1ccc(F)c(F)c1)C(=O)N[C@@H](Cc1c[nH]cn1)C(=O)NCc1ccccc1 [Compound 72]	460	1300	
CCCCCCCCNC(=O)[C@H](CCCNC(=N)N)NC(=O)[C@H](Cc1ccc(F)c(F)c1)NC(=O)Nc1ccc2c(CN3CCCCC3)cn(Cc3ccc(F)cc3)c2c1 [Compound 73]	2400	7500	
N=C(N)NCCC[C@H](NC(=O)[C@H](Cc1ccc(F)c(F)c1)NC(=O)Nc1ccc2c(CN3CCCC3)cn(CC3CCCCC3)c2c1)C(=O)NCc1ccccc1 [Compound 74]	2900	560	
CCN(CC)Cc1cn(CCCc2ccccc2)c2cc(NC(=O)N[C@@H](Cc3ccc(F)c(F)c3)C(=O)N[C@@H](CCCNC(=N)N)C(=O)NCc3ccccc3)ccc12 [Compound 75]	2200	230	
CCN(CC)Cc1cn(CCc2ccc(F)cc2)c2cc(NC(=O)N[C@@H](Cc3ccc(F)c(F)c3)C(=O)N[C@@H](CCCNC(=N)N)C(=O)NCc3ccccc3)ccc12 [Compound 76]	1100	200	

SMILES	IC50 (gel-filtered platelets; Platelet) [nM]	IC50 [1] [nM]	IC50 (gel-filtered platelets) [nM]
NC(=O)NCCC[C@H](NC(=O)[C@H](Cc1cccc(F)c1)NC(=O)Nc1ccc2c(CN3CCCC3)cn(Cc3c(Cl)cccc3Cl)c2c1)C(=O)NCc1ccccc1 [Compound 77]	29500	620	
NCC[C@H](NC(=O)[C@H](Cc1ccc(Cl)cc1)NC(=O)Nc1ccc2c(CN3CCCC3)cn(Cc3c(Cl)cccc3Cl)c2c1)C(=O)NCc1ccccc1 [Compound 78]	1300	1500	
NC[C@H](NC(=O)[C@H](Cc1ccc(Cl)cc1)NC(=O)Nc1ccc2c(CN3CCCC3)cn(Cc3c(Cl)cccc3Cl)c2c1)C(=O)NCc1ccccc1 [Compound 79]	1300	170	
N=C(N)NCCC[C@H](NC(=O)Nc1ccc2c(CN3CCCC3)cn(Cc3c(Cl)cccc3Cl)c2c1)C(=O)N[C@@H](Cc1ccc(F)c(F)c1)C(=O)NCc1ccccc1 [Compound 80]	11300	5900	
N=C(N)NCCC[C@H](NC(=O)[C@H](Cc1ccc(F)c(F)c1)NC(=O)Nc1ccc2c(CN3CCCC3)cn(Cc3c(Cl)cccc3Cl)c2c1)C(=O)NCCCCCN [Compound 81]	410	70	
NC(N)=NCCC[C@H](NC(=O)[C@H](Cc1ccc(F)c(F)c1)NC(=O)Nc1ccc2c(CN3CCCC3)cn(Cc3ccc(F)cc3)c2c1)C(=O)NCc1ccco1 [Compound 82]	1500	310	
C[C@@H](CNC(=O)[C@H](CCCNC(=N)N)NC(=O)[C@H](Cc1ccc(F)c(F)c1)NC(=O)Nc1ccc2c(CN3CCCC3)cn(Cc3c(Cl)cccc3Cl)c2c1)c1ccccc1 [Compound 83]	430	680	
N=C(N)NCCC[C@H](NC(=O)[C@@H](Cc1ccc(F)c(F)c1)NC(=O)Nc1ccc2c(CN3CCCC3)cn(Cc3c(Cl)cccc3Cl)c2c1)C(=O)NCc1ccccc1 [Compound 84]		3200	14900
NC(N)=NCCC[C@H](NC(=O)[C@H](Cc1ccc(I)cc1)NC(=O)Nc1ccc2c(CN3CCCCC3)cn(Cc3c(Cl)cccc3Cl)c2c1)C(=O)NCc1ccccc1 [Compound 85]	4800	1600	
N=C(N)NCCC[C@H](NC(=O)[C@H](Cc1ccccc1Cl)NC(=O)Nc1ccc2c(CN3CCCCC3)cn(Cc3c(Cl)cccc3Cl)c2c1)C(=O)NCc1ccccc1 [Compound 86]	2900	510	
COC[C@H]1CCCN1Cc1cn(Cc2c(Cl)cccc2Cl)c2cc(NC(=O)N[C@@H](Cc3ccc(Cl)cc3)C(=O)N[C@@H](CCCNC(=N)N)C(=O)NCc3ccccc3)ccc12 [Compound 87]	1300	280	
NC(N)=NCCC[C@H](NC(=O)[C@H](Cc1cccc(F)c1)NC(=O)Nc1ccc2c(CN3CCC(=O)CC3)cn(Cc3c(Cl)cccc3Cl)c2c1)C(=O)NCc1ccccc1 [Compound 88]	12600	1700	
Cc1ccccc1Cn1cc(CN2CCC(N(C)C)C2)c2ccc(NC(=O)N[C@H](Cc3ccc(F)c(F)c3)C(=O)N[C@@H](CCCN=C(N)N)C(=O)NCc3ccccc3)cc21 (some centres unmarked) [Compound 90]	> 10000	15800	
COC[C@H]1CCCN1Cc1cn(Cc2cc(Cl)nc(Cl)c2)c2cc(NC(=O)N[C@@H](Cc3cccc(F)c3)C(=O)N[C@@H](CCCNC(=N)N)C(=O)NCc3ccccc3)ccc12 [Compound 91]	22400	4000	
N=C(N)NCCC[C@H](NC(=O)[C@H](Cc1cccc(F)c1)NC(=O)Nc1ccc2c(CN3CCCC3)cn(Cc3c(Cl)cccc3Cl)c2c1)C(=O)NCc1ccc(S(N)(=O)=O)cc1 [Compound 92]	1300	1000	
